Key:
Format in all cases: cell-based
SKOV3 cells = assay: Two-drug synergy of rotenone and MTHFD2 inhibitor on viability (SynergyFinder); settings: MTHFD2 inhibitor combined with complex I inhibitor rotenone
Source text: (§1) FIG. 11 Investigating alternative metabolic pathways to rescue UQCR11-null cells from collateral lethal targeting of MTHFD2. (a) Correlation between NDUFS7 mRNA expression and copy-number alterations of the 19p13.3 locus, represented by UQCR11 copy-number in TCGA OVCA dataset (n=303). Correlations estimated using Spearman's rank correlation test. (b) Gene expression of NDUFS7 measured via qRT-PCR in UQCR11-null lines (OVCAR8, CAOV3, HeyA8) relative to NDUFS7 expression in UQCR11-intact line (SKOV3). Data representative of two independent experiments presented as mean±s.d. (n=5), analyzed using ordinary one-way ANOVA with Dunnett's correction for multiple comparisons. (c) Doseresponse curve for single-agent inhibition in SKOV3 cells by either Complex I inhibitor, rotenone, or MTHFD2 inhibitor. […] Data are representative of two independent experiments and presented as mean±s.e.m (n=3) and analyzed using two-tailed Welch's t-test. […] Viability decrease was measured 72 h after inhibitor treatment relative to vehicle control. […] (n=6) and analyzed using ordinary 2-way ANOVA with Sidak's correction for multiple comparisons. […] (n=4) and analyzed using two-tailed Welch's t-test. […] Viability decrease was measured 72 h after inhibitor treatment relative to vehicle control. […] (n=5) and analyzed using two-tailed Welch's t-test.

UQCR11-null HeyA8 cells = assay: Resistance to MTHFD2 inhibition upon AOX expression or UQCR11 overexpression; settings: 72 h
Source text: as §1

[1] = test system: reductive MTHFD2 flux in SKOV3 cells; assay: Reductive MTHFD2 flux by 2,3,3-[2H]-serine tracing; settings: SKOV3 treated with MTHFD2 inhibitor 60 μM
Protocol: FIG. 4 Dynamic flux analysis with parallel tracers to quantify oxidative MTHFD2 flux. a, Oxidative MTHFD2 flux and percentage decrease in OCRfollowing MTHFD2 inhibition in SKOV3 cells treated with rotenone (0, 31, 62, 125, 250, 500 or 1,000 nM) and MTHFD2 inhibitor (0 or 60 μM). Oxidative MTHFD2 flux is proportional to [2H1]-serine/[2H1]-NADH enrichment in cells cultured with 4-[2H]-glucose for 8 h. Percentage decrease in OCR is estimated in SKOV3 cells treated with 60 μM MTHFD2i compared with 0 μM MTHFD2i. Oxidative flux data are combined from two independent experiments (n=4), with mean±s.d. estimated using error propagation. […] (n=6) and analysed using two-tailed Welch's t-test. e, Ratio of [2H2]-serine/[2H]-NADH enrichment in SKOV3 and OVCAR8 cells at 2 h after combined tracer introduction of 4-[2H]-glucose and [2H]-formate, representing the normalized contribution of [2H]-NADH to [2H2]-serine via oxidative MTHFD2 flux. Data combined from two independent experiments (n=6), with mean±s.d. estimated using error propagation and analysed by two-tailed Welch's t-test. f, [2H2]-serine enrichment in SKOV3 cells expressing shScramble or shUQCR11 at 2 h after combined tracer introduction of 4-[2H]-glucose and [2H]-formate. […] (n=5) and analysed using one-tailed non-parametric Mann-Whitney test. […]

SKOV3 and OVCAR8 cells = assay: De novo pyrimidine synthesis flux with [13C4]-aspartate tracer; settings: SKOV3 and OVCAR8, with vs without MTHFD2 inhibitor

Cc1c(N2CCN(C)[C@@H](C)C2)ccc2c3c(c(=O)oc12)CN(C(=O)c1ccc(NS(C)(=O)=O)c(OC(F)(F)F)c1)CC3 [DS18561882]
effect of co-inhibition on viability (SKOV3 cells): synergistic effect | rescue from MTHFD2 inhibitor-mediated cell death (UQCR11-null HeyA8 cells; HeyA8 ectopically expressing alternative oxidase AOX): partially rescued | rescue from MTHFD2 inhibitor-mediated cell death (UQCR11-null HeyA8 cells; HeyA8 overexpressing UQCR11): partially rescued | reductive MTHFD2 flux [1]: greatly reduced | de novo pyrimidine synthesis flux (SKOV3 and OVCAR8 cells): similarly reduced
